{"source": "paper PMC12221989", "about": "“One-carbon homologation of alkenes” (Nature, 2025)", "key": {"Human Cyclophilin A": {"target": "Human Cyclophilin A (Homo sapiens, UniProt P62937)", "sequence (P62937 whole entry)": "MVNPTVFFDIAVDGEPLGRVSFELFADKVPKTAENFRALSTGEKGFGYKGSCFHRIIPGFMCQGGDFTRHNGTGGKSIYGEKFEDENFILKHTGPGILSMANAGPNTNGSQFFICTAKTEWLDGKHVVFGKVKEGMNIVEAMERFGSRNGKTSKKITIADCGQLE", "test": "PPIase TR-FRET competitive binding assay", "method": "PPIase TR-FRET competitive binding assay\nCyclophilin A assays were conducted by Eurofins Integrated Discovery UK Ltd (EID) to determine the inhibitory activity of the analogues against the Human Cyclophilin A in a TR-FRET Competitive Binding assay. Assays were performed in duplicate, with Kd values calculated from mean averages. […]\nbinding to the CypA enzyme: the CypA enzyme, tagged with a polyhistidine sequence, forms a complex with an anti-6xHis antibody labelled with a fluorescent donor, F(d), and the enzyme […]\nCompounds are diluted from DMSO stocks to 50-fold the final concentration and then in assay buffer to 2-fold the final assay plate concentration. An equal volume of compound is added to the master mix in the assay plate containing the enzyme/antibody/ligand complex, with a final concentration of detergent of 0.01%. This is incubated for 30 mins at room temperature and the plate read at 2 wavelengths (A and B) to detect emission from F(d) and F(a), respectively. The ratio B/A is calculated, blank subtracted and either expressed as a percentage of the ‘no inhibitor’ control or the blank subtracted values are plotted against the inhibitor concentration in Log10 Molar and fitted using one site Ki nonlinear regression to determine the Kd. Where possible, compound Kds are determined from duplicate data points. Each assay plate is set up with ‘no enzyme’ blanks and ‘no inhibitor’ controls, which are used to determine the Z’ value for each plate."}, "Jurkat cells": {"test_system": "Jurkat cells", "test": "IL-2 release assay, Jurkat cells stimulated with anti-CD3/anti-CD28", "type": "cell-based, human", "conditions": "for IL-2 levels, Mean: mean of three replicates normalized to the vehicle control", "method": "Interleukin-2 (IL-2) release assays were conducted by Eurofins Pan Labs to determine ability for the analogues to inhibit IL-2 secretion from Jurkat cells following stimulation with anti-CD3 and anti-CD28 for a period of 24 hours. Data shown are means of three replicates normalized to the vehicle control\n1) Cryopreserved Jurkat cells were thawed and cultured according to established protocols for four days at 37°C, 5% CO2 prior to assay.\n2) Jurkat cells were harvested and seeded into 96-well plates at a density of 2x10^5 cells/well with […]\npenicillin/streptomycin, and 2 mM L-glutamine).\n3) Cells were incubated at 37°C, 5% CO2 for 1 hour prior to the addition of test agents.\n4) The test agents were serially diluted in DMSO to 1000X assay concentrations, then further diluted to 20X assay concentrations in culture medium. The reference inhibitor Cyclosporin A (Sigma Aldrich catalog #C1832) was diluted to 1000X assay concentrations in DMSO before dilution to 20X assay concentration in culture medium.\n5) The test agents, reference inhibitor, and diluted vehicle controls were added to the cells in volumes of 10 μL in triplicate and incubated for 1 hour at 37°C, 5% CO2. […]\nconcentrations in culture medium. The corresponding isotype controls were diluted to 5X assay concentrations in culture medium.\n7) Diluted anti-CD3/anti-CD28 was added to test agent and positive control wells in volumes of 40 μL according to the plate map. Isotype controls were added to the isotype control wells.\nCulture medium was added to vehicle and unstimulated control wells. […]\nassay volumes of 200 μL and control concentrations of 50 ng/mL cyclosporin A (reference inhibitor), 0.1% DMSO (vehicle), 15 μg/mL anti-CD3, and 15 μg/mL anti-CD28.\n8) Cells were incubated for 24 hours at 37°C, 5% CO2.\n9) At the end of the incubation period, plates were centrifuged at 200g for 10 minutes. Cell culture supernatants were collected and stored at -80°C until needed for analysis.\nData Analysis and Analyte Limits of Detection\nIL-2 cytokine levels in cell culture supernatants were determined using Luminex methodology per the manufacturer’s protocol using the Human Cytokine/Chemokine/Growth Factor Panel A Kit from Millipore Sigma (catalog #HCYTA-60K) with standard ranges and limits of detection in Table S9. Levels of each cytokine were interpolated from standard curves using non-linear regression analysis in Belysa Software (Millipore Sigma). The raw data in the form of median fluorescence unit was interpolated into test concentrations (pg/mL). The interpolated data were then normalized to the vehicle control\nTable S9. Analyte limit of detection\nAnalyte Lowest standard (pg/mL) Highest standard (pg/mL) Sensitivity (pg/mL) […]\nReported mean values (pg/mL) are from three biological replicates normalized to the vehicle […]\nFig. S5. IL-2 release by Jurkat cells following stimulation with anti-CD3/anti-CD28 and treatment with the indicated test agent for 24 hours. Error bars indicate the standard error of the […]"}, "[1]": {"test": "Reversed-phase HPLC retention as measure of lipophilicity", "conditions": "reversed-phase C18, Fig. S4-b; corroborates calculated lipophilicity"}, "[2]": {"test_system": "calcineurin in the presence of Cyclophilin A", "test": "Calcineurin inhibition assay (phosphatase activity in the presence of Cyclophilin A)", "type": "biochemical", "method": "Calcineurin inhibition assay\nCalcineurin inhibition assays were conducted by Eurofins Integrated Discovery UK Ltd (EID) to determine the effect of compounds on the activity of calcineurin in the presence of Cyclophilin A. Assays were performed in duplicate, with IC50 values calculated from mean […]\nCompounds were diluted with and without immunophilin (CypA) in a 96-well plate. After addition of calcineurin/calmodulin complex, the plate was incubated at 30 °C for 10 minutes.\nThe addition of the RII phosphopeptide substrate initiated the reaction, and the plate was […]\nThe reaction was stopped by the addition of Malachite green reagent. The plate was incubated at room temperature to allow colour development (5 – 20 mins). After sufficient colour has developed, the absorbance is read at 620 nm. Blank subtracted absorbance readings are plotted against compound concentration to determine IC50 values or % inhibition at the top concentration."}, "in vitro": {"test": "in vitro", "conditions": "human", "method": "Metabolic stability assay\nHepatic microsomal stability assays were conducted by Charles River Laboratories. Assays were performed in duplicate.\nThe stability of the test compound (1 µM) was measured following incubation at 37 °C with […] (0.5 mg protein/mL) in the presence of the cofactor, NADPH.\nIncubates were prepared in duplicate, with aliquots removed at 0, 5, 10, 20 and 40 minutes and reactions terminated, and the compound was extracted by the addition of solvent. The disappearance of the parent compound was be monitored by LC-MS/MS and the half-life determined over the time-course of incubation. The half-life value was used to calculate the in vitro intrinsic clearance expressed as µL/min/mg protein.\nTable S11. Metabolic Stability Data\nHalf- Half- Half- Clint Clint Mean Clint\nCompound Cofactor life life Life (uL/min/mg (uL/min/mg (uL/min/mg Species (min) (min) (min) protn) n=1 protn) n=2 protn) (results)"}}}
{"smiles": "C/C=C/CC[C@@H](C)[C@@H](O)[C@H]1C(=O)N[C@@H](CC)C(=O)N(C)CC(=O)N(C)[C@@H](CC(C)C)C(=O)N[C@@H](C(C)C)C(=O)N(C)[C@@H](CC(C)C)C(=O)N[C@@H](C)C(=O)N[C@H](C)C(=O)N(C)[C@@H](CC(C)C)C(=O)N(C)[C@@H](CC(C)C)C(=O)N(C)[C@@H](C(C)C)C(=O)N1C", "note": "[compound 21, E-homo Cyclosporine-A]", "values": [{"measurement": "Kd", "setting": "Human Cyclophilin A", "value": 76.7, "unit": "nM"}, {"measurement": "suppression of IL-2 secretion (in words)", "setting": "Jurkat cells; at high concentrations (≥1 µM), Jurkat T cells", "value": "effectively suppressed IL-2 secretion"}, {"measurement": "IL-2 levels, Mean", "setting": "Jurkat cells; test agent 0.10 µM", "value": 11.7, "unit": "pg/mL"}, {"measurement": "IL-2 levels, Mean", "setting": "Jurkat cells; test agent 0.32 µM", "value": 3.5, "unit": "pg/mL"}, {"measurement": "IL-2 levels, Mean", "setting": "Jurkat cells; test agent 1.0 µM", "value": 1.6, "unit": "pg/mL"}, {"measurement": "IL-2 levels, Mean", "setting": "Jurkat cells; test agent 3.2 µM", "value": 1.1, "unit": "pg/mL"}, {"measurement": "IL-2 levels, Mean", "setting": "Jurkat cells; test agent 10 µM", "value": 1.0, "unit": "pg/mL"}, {"measurement": "increase of HPLC retention time upon each homologation event", "setting": "[1]", "value": "~ 2.5 minutes"}, {"measurement": "decrease in phosphatase activity compared with cyclosporine A", "setting": "[2]; in vitro calcineurin phosphatase activity assay", "value": 3.5, "unit": "fold"}, {"measurement": "IC50", "setting": "[2]; with CypA, calcineurin/calmodulin, RII phosphopeptide substrate, 30 °C 45 min, Malachite green A620, duplicate, IC50 from mean averages", "value": 401, "unit": "nM"}, {"measurement": "half-life at 1 µM", "setting": "in vitro; both, liver microsomes", "value": 32, "unit": "min"}, {"measurement": "Clint (uL/min/mg protn) n=1", "setting": "in vitro", "value": 40, "unit": "uL/min/mg protn"}, {"measurement": "Clint (uL/min/mg protn) n=2", "setting": "in vitro", "value": 46, "unit": "uL/min/mg protn"}, {"measurement": "Half-life (min) n=1", "setting": "in vitro", "value": 35, "unit": "min"}, {"measurement": "Half-life (min) n=2", "setting": "in vitro", "value": 30, "unit": "min"}, {"measurement": "Mean Clint (uL/min/mg protn)", "setting": "in vitro", "value": 43, "unit": "uL/min/mg protn"}]}
